According to US20120115896A1, “ISOGENIC HUMAN CELL LINES COMPRISING MUTATED CANCER ALLELES AND PROCESS USING THE CELL LINES” (priority 2008, published 2012):
Read-outs that look alike come from different tables or passages of the source.

What was measured:
[1] = tested on: hTERT-HME1 cells carrying EGFR (delE746-A750) KI; test: Drug assay: cell viability by ATP content (CellTiter-Glo, 96 h), KI versus parental cells; ΔKI pharmarray analysis
[2] = tested on: hTERT-HME1 cells carrying KRAS (G13D) KI; test: Drug assay: cell viability by ATP content (96 h), KI versus parental cells; ΔKI pharmarray analysis; conditions: for pharmarray: differential response of KRAS mutated cells versus WT: hTERT-HME1, FIG. 5H
[3] = tested on: hTERT-HME1 cells carrying PIK3CA (E545K and H1047R) KI; test: Drug assay: cell viability by ATP content (96 h) and Hoechst/propidium iodide staining, KI versus parental cells; ΔKI pharmarray analysis
[4] = tested on: hTERT-HME1 DKI cells carrying PIK3CA (H1047R) and EGFR (delE746-A750); test: Drug assay: cell viability by ATP content (96 h), DKI versus parental cells; ΔKI pharmarray analysis
[5] = tested on: hTERT-HME1 cells carrying BRAF (V600E) KI; test: Drug assay: cell viability by ATP content (96 h), KI versus parental cells; ΔKI pharmarray analysis; conditions: for pharmarray: differential response of BRAF mutated cells versus WT: hTERT-HME1, FIG. 5H

Compound: O=c1[nH]cc(F)c(=O)[nH]1 [5-FU]
- ΔKI EGFR [1]: 0
- ΔKI KRAS [2]: 0
- ΔKI PIK3CA [3]: 0
- ΔKI PIK3CA + EGFR [4]: 0
- ΔKI BRAF ([5]; listed as OGC-083): 0

Compound: C=CCNC1=C2C[C@@H](C)C[C@H](OC)[C@H](O)[C@@H](C)/C=C(\C)[C@H](OC(N)=O)[C@@H](OC)/C=C\C=C(/C)C(=O)NC(=CC1=O)C2=O [17-AAG, 17-Allylamino geldanamycin]
- ΔKI EGFR [1]: −11.7
- ΔKI EGFR ([1]; Log(M) −5.70): 0
- ΔKI EGFR ([1]; Log(M) −6.70): 0
- pharmarray: differential response of EGFR mutated cells versus WT ([1]; hTERT-HME1, FIG. 5B, 5E): less susceptible than their WT counterpart
- ΔKI PIK3CA [3]: 0
- ΔKI PIK3CA ([3]; Log(M) −5.70): 3
- ΔKI PIK3CA ([3]; Log(M) −6.70): 0
- ΔKI PIK3CA + EGFR [4]: 0
- ΔKI PIK3CA + EGFR ([4]; Log(M) −5.70): 1.18
- ΔKI PIK3CA + EGFR ([4]; Log(M) −6.70): 0
- ΔKI BRAF [5]: 0
- ΔKI BRAF ([5]; Log(M) −5.70): 0.08
- ΔKI BRAF ([5]; Log(M) −6.70): 0

Compound: CO[C@H]1/C=C\C=C(/C)C(=O)NC2=CC(=O)C(NCCN(C)C)=C(C[C@@H](C)C[C@H](OC)[C@H](O)[C@@H](C)/C=C(\C)[C@@H]1OC(N)=O)C2=O [17-DMAG]
- ΔKI EGFR ([1]; Log(M) −6.19): −1.5
- ΔKI EGFR ([1]; Log(M) −6.89): −12.5
- ΔKI EGFR ([1]; Log(M) −7.00): 0
- ΔKI EGFR ([1]; Log(M) −7.40): 0
- ΔKI EGFR ([1]; Log(M) −7.70): −8.56
- ΔKI EGFR ([1]; Log(M) −8.10): 0
- ΔKI EGFR ([1]; Log(M) −8.40): 0
- pharmarray: differential response of EGFR mutated cells versus WT ([1]; hTERT-HME1, FIG. 5B, 5E): less susceptible than their WT counterpart
- ΔKI KRAS ([2]; Log(M) −6.19): 0
- ΔKI KRAS ([2]; Log(M) −6.89): 0
- ΔKI KRAS ([2]; Log(M) −7.00): 0
- ΔKI KRAS ([2]; Log(M) −7.40): 0
- ΔKI KRAS ([2]; Log(M) −7.70): 0
- ΔKI KRAS ([2]; Log(M) −8.10): 0
- ΔKI KRAS ([2]; Log(M) −8.40): 0
- ΔKI PIK3CA ([3]; Log(M) −6.19): 0
- ΔKI PIK3CA ([3]; Log(M) −6.89): 0
- ΔKI PIK3CA ([3]; Log(M) −7.00): 0
- ΔKI PIK3CA ([3]; Log(M) −7.40): 0
- ΔKI PIK3CA ([3]; Log(M) −7.70): 0
- ΔKI PIK3CA ([3]; Log(M) −8.10): 0
- ΔKI PIK3CA ([3]; Log(M) −8.40): 0
- ΔKI PIK3CA + EGFR ([4]; Log(M) −6.19): 1.4
- ΔKI PIK3CA + EGFR ([4]; Log(M) −6.89): 4.46
- ΔKI PIK3CA + EGFR ([4]; Log(M) −7.00): 0
- ΔKI PIK3CA + EGFR ([4]; Log(M) −7.40): −0.12
- ΔKI PIK3CA + EGFR ([4]; Log(M) −7.70): 0
- ΔKI PIK3CA + EGFR ([4]; Log(M) −8.10): −1.02
- ΔKI PIK3CA + EGFR ([4]; Log(M) −8.40): 0
- ΔKI BRAF ([5]; Log(M) −6.19): 0
- ΔKI BRAF ([5]; Log(M) −6.89): 0
- ΔKI BRAF ([5]; Log(M) −7.00): 0
- ΔKI BRAF ([5]; Log(M) −7.40): 0
- ΔKI BRAF ([5]; Log(M) −7.70): 0
- ΔKI BRAF ([5]; Log(M) −8.10): 0
- ΔKI BRAF ([5]; Log(M) −8.40): 0

Compound: CCCCC/C=C\C/C=C\C/C=C\C/C=C\CCCC(=O)Nc1ccc(O)cc1 [AM404]
- ΔKI EGFR [1]: 0
- ΔKI EGFR ([1]; Log(M) −4.70): 0
- ΔKI KRAS [2]: 0
- ΔKI KRAS ([2]; Log(M) −4.70): 0
- ΔKI PIK3CA [3]: 0
- ΔKI PIK3CA ([3]; Log(M) −4.70): 0
- ΔKI PIK3CA + EGFR [4]: 0
- ΔKI PIK3CA + EGFR ([4]; Log(M) −4.70): 0
- ΔKI BRAF [5]: −0.12
- ΔKI BRAF ([5]; Log(M) −4.70): −1.68

Compound: CC(C)c1c(C(=O)Nc2ccccc2)c(-c2ccccc2)c(-c2ccc(F)cc2)n1CC[C@@H](O)C[C@@H](O)CC(=O)[O-].CC(C)c1c(C(=O)Nc2ccccc2)c(-c2ccccc2)c(-c2ccc(F)cc2)n1CC[C@@H](O)C[C@@H](O)CC(=O)[O-].[Ca+2] [Atorvastatin Ca]
- ΔKI EGFR ([1]; Log(M) −5.25): 0
- ΔKI EGFR ([1]; Log(M) −5.85): 0
- ΔKI EGFR ([1]; Log(M) −6.46): 0
- ΔKI KRAS ([2]; Log(M) −5.25): 0
- ΔKI KRAS ([2]; Log(M) −5.85): 0
- ΔKI KRAS ([2]; Log(M) −6.46): 0
- ΔKI PIK3CA ([3]; Log(M) −5.25): 0
- ΔKI PIK3CA ([3]; Log(M) −5.85): 9.44
- ΔKI PIK3CA ([3]; Log(M) −6.46): 0
- ΔKI PIK3CA + EGFR ([4]; Log(M) −5.25): 0
- ΔKI PIK3CA + EGFR ([4]; Log(M) −5.85): 0
- ΔKI PIK3CA + EGFR ([4]; Log(M) −6.46): 0
- ΔKI BRAF ([5]; Log(M) −5.25): 0
- ΔKI BRAF ([5]; Log(M) −5.85): −2.6
- ΔKI BRAF ([5]; Log(M) −6.46): 0

Compound: CN(C)CCCn1cc(C2=C(c3c[nH]c4ccccc34)C(=O)NC2=O)c2ccccc21 [Bisindolylmaleimide I]
- ΔKI EGFR [1]: 0
- ΔKI EGFR ([1]; Log(M) −5.70): 0
- ΔKI KRAS [2]: 0
- ΔKI KRAS ([2]; Log(M) −5.70): 0
- ΔKI PIK3CA [3]: 0
- ΔKI PIK3CA ([3]; Log(M) −5.70): 0
- ΔKI PIK3CA + EGFR [4]: 0
- ΔKI PIK3CA + EGFR ([4]; Log(M) −5.70): 0
- ΔKI BRAF [5]: 0
- ΔKI BRAF ([5]; Log(M) −5.70): 0

Compound: CC/C(=C(\c1ccc(O)cc1)c1ccc(OCCN(C)C)cc1)c1ccccc1 [Tamoxifen 4-Hydroxy-(Z)]
- ΔKI KRAS [2]: 0
- ΔKI BRAF [5]: 0

Compound: COc1cc2ncnc(Nc3ccc(F)c(Cl)c3)c2cc1OCCCN1CCOCC1 [gefitinib, Gefitinib]
- pharmarray: differential response of KRAS mutated cells versus WT [2]: resistant
- pharmarray: differential response of BRAF mutated cells versus WT [5]: resistant

Compound: O=c1c(-c2ccc(O)cc2)coc2cc(O)cc(O)c12 [genistein, Genistein]
- pharmarray: differential response of EGFR mutated cells versus WT [1]: EGFR sensitive drug cluster

Compound: COc1ccc2c(c1)c(CC(=O)O)c(C)n2C(=O)c1ccc(Cl)cc1 [indomethacin, Indomethacin]
- extended analysis of effect on PIK3CA KI versus WT cells (viability, apoptosis) ([3]; hTERT-HME1, 96 h, ATP assay, Hoechst/propidium iodide, FIG. 19): acts preferentially on cells carrying the PIK3CA mutation with both anti-proliferative and pro-apoptotic effects
- pharmarray: differential response of PIK3CA mutated cells versus WT ([3]; hTERT-HME1, FIG. 5G): unexpectedly active on PIK3CA mutated cells

Compound: CC[C@H](C)C(=O)O[C@H]1C[C@@H](C)C=C2C=C[C@H](C)[C@H](CC[C@@H]3C[C@@H](O)CC(=O)O3)[C@H]21 [lovastatin, Lovastatin]
- pharmarray: differential response of BRAF mutated cells versus WT [5]: more resistant

Compound: CC[C@H](C)C(=O)O[C@H]1CCC=C2C=C[C@H](C)[C@H](CC[C@@H]3C[C@@H](O)CC(=O)O3)[C@H]21 [mevastatin, Mevastatin]
- pharmarray: differential response of BRAF mutated cells versus WT [5]: more resistant

Compound: CC(C)c1nc(N(C)S(C)(=O)=O)nc(-c2ccc(F)cc2)c1/C=C/[C@@H](O)C[C@@H](O)CC(=O)O [rosuvastatin, Rosuvastatin Ca]
- pharmarray: differential response of BRAF mutated cells versus WT [5]: more resistant

Compound: Erlotinib mesylate
- growth inhibition of EGFR delE746-A750 KI versus WT cells [1]: preferentially inhibited the growth
- pharmarray: differential response of EGFR mutated cells versus WT [1]: inhibit EGFR mutated cells selectively
- IC50 ([1]; read-out: IC50 values of erlotinib in EGFR mutant cells): 250 ± 140 nM
- pharmarray: differential response of KRAS mutated cells versus WT [2]: resistant
- sensitization in DKI cells containing both EGFR and PIK3CA alterations [4]: abrogates the sensitization seen with the EGFR KI alone
- pharmarray: differential response of BRAF mutated cells versus WT [5]: resistant

Compound: Sunitinib Maleate
- ΔKI KRAS ([2]; Log(M) −4.82): 0
- ΔKI KRAS ([2]; Log(M) −5.30): 0
- ΔKI KRAS ([2]; Log(M) −5.78): 0
- ΔKI BRAF ([5]; Log(M) −4.82): 0
- ΔKI BRAF ([5]; Log(M) −5.30): 4.42
- ΔKI BRAF ([5]; Log(M) −5.78): 0
